Experimental data taken from patent publication US20240415123A1, “METHODS AND COMPOSITIONS FOR ICAFOLIN HERBICIDE TOLERANCE” (Monsanto Technology LLC, priority 2023, published 2024).

What was measured:
Type in all cases: in vivo
[1] = test system: transgenic soybean plants expressing CYP21; test: Icafolin herbicide injury rating, greenhouse spray, CYP21 soybean; details: for Percent Injury 14 DAT / Percent injury 21 DAT: Table 8; for Percent Injury 14 DAT / injury: 14 DAT
Source text: (§1) The codon-optimized genes were placed into plant transformation cassettes with each CYP coding sequence operably linked to a constitutive expression element comprising the promoter, leader, and intron of Arabidopsis thaliana Ubiquitin 3 (SEQ ID NO:14) and a Medicago truncatula photosystem II terminator (SEQ ID NO:15). Two plant transformation vectors were created, each comprising one of the CYP gene cassettes and an aadA selectable marker expression cassette, conferring resistance to the antibiotics spectinomycin and streptomycin. Soybean cultivar AG3555 seed-derived embryo explants were transformed with the vectors described above by Agrobacterium-mediated transformation using known methods in the art, and positive-transformed plantlets were selected based on growth in the presence of spectinomycin. Plantlets comprising single copy events were grown in the greenhouse to produce R1 seeds. R1 plants were subsequently selected for the homozygous CYP positive plants, either by molecular analysis of young leaf tissue or by seed chipping prior to planting. These selected plants were then screened for tolerance to the icafolin herbicide.
(§2) Herbicide tolerance screening was performed by selecting R1 plants at roughly the V2-V3 developmental stage and applying the icafolin herbicide in a track sprayer under standard greenhouse conditions. Two independent transgenic events per transgene were selected for screening. The herbicide was formulated with 1% v/v methylated seed oil (MSO) and 2.5% v/v ammonium sulfate (AMS) and sprayed with a XR nozzle at 15 gallons per […] (GPA) to mimic field conditions. The icafolin formulation was sprayed at two rates: 5 g active ingredient (ai)/hectare (ha) and 25 g ai/ha. The treated soybean plants were returned to the greenhouse following spray application and allowed to grow under standard conditions. The plants were rated for herbicide injury at approximately 14 and 21 days after treatment (DAT). Untreated transgenic plants and control (wild-type) plants were used for phenotypic comparison. The herbicide injury rating accounts for plant malformation, stunting, chlorosis, necrosis, and plant death relative to the untreated control plants. An injury rating of approximately 90% or above indicates nearly complete plant death. An injury rating of less than 30% indicates partial tolerance and an injury rating of less than 20% indicates good tolerance. Injury ratings were collected and analyzed, and photographs of representative plants were taken.

[2] = test system: transgenic soybean plants expressing CYP28; test: Icafolin herbicide injury rating, greenhouse spray, CYP28 soybean; details: Table 8
Source text: as §1, §2

[3] = test system: control (wild-type) soybean plants; test: Icafolin herbicide injury rating, greenhouse spray, control soybean; details: for Percent Injury 13 DAT / Percent Injury 14 DAT / Percent Injury 15 DAT / Percent injury 21 DAT: Control
Procedure: Herbicide tolerance screens were performed by selecting R1 plants at roughly the V2-V3 developmental stage and applying icafolin herbicide with a track sprayer under standard greenhouse conditions. Two independent transgenic events per transgene were screened. The herbicide was formulated with 1% v/v methylated seed oil (MSO) and 2.5% v/v ammonium sulfate (AMS) and sprayed with a XR nozzle at 15 gallons per […] (GPA) to mimic field conditions. The icafolin used in this Example and in the experiments described in Examples 2-4 was a mixture of the methyl ester forms of the 2R, 4R and 2S, 4S isomers. The icafolin formulation was sprayed at two rates: 5 g active ingredient (ai)/hectare (ha) and 25 g ai/ha. The herbicide treated soybean plants were returned to the greenhouse following spray application and allowed to grow under standard conditions. Plants were rated for herbicide injury at approximately 14 and 21 days after treatment (DAT). Untreated transgenic plants and control (wild-type) plants were used for phenotypic comparison. The herbicide injury rating accounts for plant malformation, stunting, chlorosis, necrosis, and plant death relative to the untreated control plants. An injury rating of approximately 90% or above indicates nearly complete plant death. An injury rating of less than 30% indicates partial tolerance, and an injury rating of less than 20% indicates good tolerance. Injury ratings were collected and analyzed, and photographs of representative plants were taken.
as §2
as §2, with “13” for “14”, “An injury rating of approximately 90% or above indicates nearly complete plant death. An injury rating of less than 30% indicates partial tolerance and an injury rating of less than 20% indicates good tolerance. Injury ratings were collected and analyzed, and photographs of representative plants were taken.” left out

[4] = CYP21 Event 344, 5 g ai/ha icafolin
[5] = CYP21 Event 344, 25 g ai/ha icafolin
[6] = CYP21 Event 502, 5 g ai/ha icafolin
[7] = CYP21 Event 502, 25 g ai/ha icafolin
[8] = CYP28 Event 44, 5 g ai/ha icafolin
[9] = CYP28 Event 44, 25 g ai/ha icafolin
[10] = CYP28 Event 90, 5 g ai/ha icafolin
[11] = CYP28 Event 90, 25 g ai/ha icafolin
[12] = 5 g ai/ha icafolin, Experiment 1
[13] = 25 g ai/ha icafolin, Experiment 1

C=C[C@]1(C(=O)N[C@H]2CO[C@@H](C(=O)OC)C2)CC(c2cc(F)cc(F)c2)=NO1 (relative stereo) [icafolin, methyl(2R*,4R*)-4-[[(5S)-3-(3,5-difluorophenyl)-5-vinyl-4H-isoxazole-5-carbonyl]amino]tetrahydrofuran-2-carboxylate]
Tolerance to icafolin ([1]; CYP21, overall): good tolerance (an injury rating of less than 20% indicates good tolerance) | Percent Injury 14 DAT [1, 4]: 2.5% | Percent injury 21 DAT [1, 4]: 5.0% | Percent Injury 14 DAT [1, 5]: 50% | Percent injury 21 DAT [1, 5]: 37.5% | Percent Injury 14 DAT [1, 6]: 7.5% | Percent injury 21 DAT [1, 6]: 5.0% | Percent Injury 14 DAT [1, 7]: 72.5% | Percent injury 21 DAT [1, 7]: 62.5% | injury ([1]; CYP21 events, 5 g ai/ha): less than 10% | injury ([1]; one CYP21 event, 25 g ai/ha): about 50% | injury ([1]; the other CYP21 event, 25 g ai/ha): about 72% | Percent Injury 14 DAT [2, 8]: 15.6% | Percent injury 21 DAT [2, 8]: 13.3% | Percent Injury 14 DAT [2, 9]: 67.2% | Percent injury 21 DAT [2, 9]: 56.7% | Percent Injury 14 DAT [2, 10]: 28.0% | Percent injury 21 DAT [2, 10]: 13.0% | Percent Injury 14 DAT [2, 11]: 68.0% | Percent injury 21 DAT [2, 11]: 74.0% | Percent Injury 13 DAT ([3]; 5 g ai/ha icafolin, 13 DAT, Table 10 (Example 4)): 42.5% | Percent Injury 14 DAT ([3]; 5 g ai/ha icafolin, 14 DAT, Experiment 2): 61% | Percent Injury 14 DAT ([3]; 5 g ai/ha icafolin, 14 DAT, Table 8 (Example 3)): 45.0% | Percent Injury 15 DAT [3, 12]: 42% | Percent injury 21 DAT [3, 12]: 50% | Percent injury 21 DAT ([3]; 5 g ai/ha icafolin, Experiment 2): 49% | Percent injury 21 DAT ([3]; 5 g ai/ha icafolin, Table 8 (Example 3)): 35.6% | Percent injury 21 DAT ([3]; 5 g ai/ha icafolin, Table 10 (Example 4)): 35.0% | Percent Injury 13 DAT ([3]; 25 g ai/ha icafolin, 13 DAT, Table 10 (Example 4)): 70.0% | Percent Injury 14 DAT ([3]; 25 g ai/ha icafolin, 14 DAT, Experiment 2): 90% | Percent Injury 14 DAT ([3]; 25 g ai/ha icafolin, 14 DAT, Table 8 (Example 3)): 78.1% | Percent Injury 15 DAT [3, 13]: 75% | Percent injury 21 DAT [3, 13]: 81% | Percent injury 21 DAT ([3]; 25 g ai/ha icafolin, Experiment 2): 91% | Percent injury 21 DAT ([3]; 25 g ai/ha icafolin, Table 8 (Example 3)): 83.1% | Percent injury 21 DAT ([3]; 25 g ai/ha icafolin, Table 10 (Example 4)): 79.4% | injury ([3]; control, 25 g ai/ha, 13 DAT, Example 4): about 70% | injury ([3]; control, 25 g ai/ha, 14 DAT, Example 3): about 78% | injury ([3]; treated control (wild-type), 5 g ai/ha, Example 1): around 50% | Injury in words ([3]; treated control (wild-type), 5 g ai/ha, Experiment 1): heavily injured | Injury in words ([3]; treated control (wild-type), 25 g ai/ha, Experiment 1): nearly completely killed | injury ([3]; treated control, 5 g ai/ha, 13 DAT, Example 4): around 42% | injury ([3]; treated control, 5 g ai/ha, 14 DAT, Example 3): around 45% | injury ([3]; treated controls, 25 g ai/ha, Example 1): around 90%
